According to patent US11959094B2, “Methods and compositions for genome editing in non-dividing cells” (Salk Institute for Biological Studies, priority 2016, dated 2024):

Tested on: HEK293 GFP-correction line
Assay: Targeted gene modification by HDR/HITI in HEK293 GFP-correction line
Assay type: cell-based
Conditions: NU7026 30 μM
From the text: Generation of HEK293 GFP-correction line. To assess the efficiency of targeted gene modification by HDR and HITI in dividing cells, a mutated GFP gene-based reporter system was established in HEK293. Briefly, pEGIP*35 was co-transfected with pMDLg/pRRE, pRSV-Rev and pMD2.G, packaged and purified as lentiviral vectors according to a published protocol Kutner, R. H., Zhang, X.-Y. & Reiser, J. Production, concentration and titration of pseudotyped HIV-1-based lentiviral vectors. Nature Protocols 4, 495-505 (2009). HEK293 cells were transduced in suspension with lentiviral EGIP*35 vector and 4 μg/ml polybrene for 1 h. After brief centrifugation to remove any residual lentiviral vector, the cells were seeded in 100 mm dishes. Three days after transduction, puromycin (1-2 μg/ml; Invitrogen) was added to the medium. After 10 days, single colonies were individually picked up and expanded as HEK293 GFP-correction line.
Transfection of in vitro cultured cells. […]
Existing methods were improved for more robust NHEJ-based targeted knock-in. […] The efficiencies of targeted gene replacement via HDR and homology-independent targeted integration (HITI) were determined by GFP and mCherry signals respectively (FIG. 1A). […]

`O=c1cc(N2CCOCC2)oc2c1ccc1ccccc12` [NU7026] was tested, and the “effect of NHEJ inhibitor on efficiency of HITI” value was “significantly decreased”.
